Assay results taken from patent US6933321B2, “Antiandrogenic biphenyls” (Endorecherche, Inc., priority 2002, dated 2005).
Like-named read-outs stand apart in the source and are kept apart here.

Test system: Shionogi mouse mammary carcinoma cells
Test: Antiandrogenic activity on DHT-stimulated Shionogi mouse mammary carcinoma cell number
Type: cell-based
Conditions: for A = Ki OH-Flu/Ki compound: ratio of Ki of hydroxyflutamide versus tested compound, higher values preferable
[1] = Mus musculus, inhibition of DHT-stimulated Shionogi cell number, 10-12 days, read-out: Antiandrogenic activity IC50
[2] = inhibition of DHT-stimulated Shionogi cell number
[3] = Mus musculus, read-out: Antiandrogenic activity IC50 (nM)

IC50 [1] [nM]	IC50 (inhibition of DHT-stimulated Shionogi cell number, 10-12 days, read-out: Antiandrogenic activity IC50) [nM]	SMILES	A = Ki OH-Flu/Ki compound [2]	IC50 [3] [nM]
> 500	–	N#Cc1ccc(-c2ccc(Cl)c(C(F)(F)F)c2)cc1 [EM-4248]	<0.2	–
> 500	–	N#Cc1ccc(-c2ccc(C#N)c(F)c2)cc1 [EM-4280]	<0.2	–
> 500	–	COc1ccc(-c2ccc(C#N)cc2)cc1Br [EM-4036]	<0.2	–
> 500	–	N#Cc1ccc(-c2ccc(F)cc2)cc1 [EM-3978]	<0.2	–
> 500	–	N#Cc1ccc(-c2ccc(F)cc2C(=O)N2CCCC2)cc1C(F)(F)F [EM-5014]	<0.2	–
> 500	–	CC(=O)Nc1cc(-c2ccc(C#N)c(C(F)(F)F)c2)c(C(N)=O)cc1F [EM-5002]	<0.2	–
–	–	COc1ccc(-c2ccc(C#N)c(C(F)(F)F)c2)cc1 [EM-3394]	1.1	49.5
> 500	–	N#Cc1ccc(-c2ccc(F)c(C(F)(F)F)c2)cc1 [EM-4249]	<0.2	–
> 500	–	N#Cc1ccc(-c2ccc(N)cc2)cc1 [EM-4049]	<0.2	–
> 500	–	CN(C)c1ccc(NC(=O)c2cc(F)ccc2-c2ccc(C#N)c(C(F)(F)F)c2)cc1 [EM-5083]	<0.2	–
> 500	–	CCCN(CCC)C(=O)c1cc(F)ccc1-c1ccc(C#N)c(C(F)(F)F)c1 [EM-4845]	<0.2	–
–	–	N#Cc1ccc(-c2ccc(C#N)c(C(F)(F)F)c2)c(Cl)c1 [EM-4205]	3.0	52
> 500	–	CCCCN(CCCC)C(=O)c1cc(F)ccc1-c1ccc(C#N)c(C(F)(F)F)c1 [EM-4844]	<0.2	–
28	–	CSc1cc(-c2ccc(F)cc2F)ccc1C#N [EM-4288]	4.4	–
> 500	–	CSc1ccc(NC(=O)c2cc(F)ccc2-c2ccc(C#N)c(C(F)(F)F)c2)cc1 [EM-5082]	<0.2	–
–	–	N#Cc1ccc(-c2ccc(Cl)cc2)cc1C(F)(F)F [EM-3703]	0.3	97
–	–	N#Cc1ccc(-c2ccc(F)cc2F)cc1Cl [EM-4283, 3-chloro-2′,4′-difluoro-biphenyl-4-carbonitrile]	2.3	37
–	> 500	N#Cc1ccc(-c2ccc(F)cc2C(=O)Nc2ccc(Cl)cc2)cc1C(F)(F)F [EM-5086]	<0.2	–

SMILES	IC50 [1] [nM]	IC50 (inhibition of DHT-stimulated Shionogi cell number, 10-12 days, read-out: Antiandrogenic activity IC50) [nM]	A = Ki OH-Flu/Ki compound [2]	IC50 [3] [nM]
N#Cc1ccc(-c2c(F)cc(F)cc2[N+](=O)[O-])cc1C(F)(F)F [EM-4948]	> 500	–	<0.2	–
N#Cc1ccc(-c2ccc(C(N)=O)cc2)cc1C(F)(F)F [EM-3971]	> 500	–	<0.2	–
N#Cc1ccc(-c2ccc(C(F)(F)F)cc2)cc1C(F)(F)F [EM-4051]	> 500	–	<0.2	–
N#Cc1ccc(-c2ccccc2F)cc1C(F)(F)F [EM-3976]	> 500	–	<0.2	–
N#Cc1ccc(-c2c(F)cc(F)cc2C(F)(F)F)cc1C(F)(F)F [EM-5004]	> 500	–	<0.2	–
COc1ccc(-c2ccc(C#N)c(C(F)(F)F)c2)c(Cl)c1 [EM-4190]	162	–	0.9	–
N#Cc1cc(F)ccc1-c1ccc(C#N)c(C(F)(F)F)c1 [EM-4096]	> 500	–	<0.2	–
CN(C)C(=O)c1cc(F)ccc1-c1ccc(C#N)c(C(F)(F)F)c1 [EM-4865]	> 500	–	<0.2	–
N#Cc1cccc(-c2ccc(C#N)c(C(F)(F)F)c2)c1 [EM-3729]	> 500	–	<0.2	–
N#Cc1ccc(-c2c(F)cc(F)cc2F)cc1Cl [EM-4851]	> 500	–	<0.2	–
COc1ccc(Cl)cc1-c1ccc(C#N)c(C(F)(F)F)c1 [EM-3747]	> 500	–	<0.2	–
